Assay [1] deals with human recombinant PLK4 (Homo sapiens (Human), UniProt O00444). In words: PLK4 Biochemical Assay (ADP-Glo). To be noted: 0.5 nM PLK4, 8.0 µM ATP, 4.7 µM MBP, 6 hours at RT. The method in brief:
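Recombinant human PLK4 (added at 1.0 nM) was preincubated 15 min at RT with compound in 50 mM HEPES pH 7.5, 10 mM MgCl2, 1 mM EGTA, 1 mM DTT, 0.01% Brij-35, 0.01% BSA. ADP formed was detected by ADP-Glo luminescence (40 min ATP depletion, 30 min detection). IC50 came from a four-parameter fit.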

The test system of assay [2] is CHP-134 cells. In words: CHP134 CellTiter-Glo (CTG) Assay. Type of assay: cell-based. Particulars: 5 days, viable cells by CellTiter-Glo. As to the method: Cells were seeded (200 cells/well) in 384-well plates for 16 hours. On day two, nine serial 1:3 compound dilutions were made in DMSO in a 96-well plate. The compounds were then further diluted into growth media using a BRAVO robot (Agilent, Santa Clara, CA). The diluted compounds were then added to quadruplicate wells in the 384-well cell plate and incubated at 37° C. and 5% CO2. After 5 days, relative numbers of viable cells were measured by luminescence using CellTiter-Glo® (Promega) according to the manufacturer’s instructions and read on a SPARK Multimode Microplate Reader (Tecan, Mannedorf Switzerland). The IC50 calculations for the values reported in Table 2 were carried out using Prism 6.0 software (GraphPad, San Diego).

Assay [3] has as its target human recombinant Aurora A (Homo sapiens (Human), UniProt O14965). Nature of the assay: Aurora A Kinase Biochemical Assay (ADP-Glo). Particulars: ratio of Aurora A IC50 to PLK4 IC50 (selectivity).
Assay [4] addresses human recombinant Aurora B (Homo sapiens (Human), UniProt Q96GD4). In words: Aurora B Kinase Biochemical Assay (ADP-Glo). Particulars: ratio of Aurora B IC50 to PLK4 IC50 (selectivity). The method in brief:
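Recombinant human Aurora B (20 nM in pH 7.5 HEPES buffer with MgCl2, EGTA, DTT, Brij-35, BSA) preincubated with compound 15 min at RT. ADP formed quantified by ADP-Glo luminescence after ATP depletion (40 min) and detection (30 min). IC50 from four-parameter non-linear regression.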

Sequence of human recombinant Aurora A (O14965 whole entry): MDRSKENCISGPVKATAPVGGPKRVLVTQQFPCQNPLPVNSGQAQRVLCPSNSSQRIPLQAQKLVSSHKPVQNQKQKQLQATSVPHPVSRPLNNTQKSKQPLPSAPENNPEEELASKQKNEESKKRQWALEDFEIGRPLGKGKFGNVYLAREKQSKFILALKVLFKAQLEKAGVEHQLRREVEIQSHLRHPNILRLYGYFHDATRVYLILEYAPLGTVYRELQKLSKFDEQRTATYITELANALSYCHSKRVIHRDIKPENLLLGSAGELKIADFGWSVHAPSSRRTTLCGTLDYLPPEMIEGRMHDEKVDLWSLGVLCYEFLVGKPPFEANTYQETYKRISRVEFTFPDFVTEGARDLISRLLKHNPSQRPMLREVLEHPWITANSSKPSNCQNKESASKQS
Sequence of human recombinant PLK4 (O00444 whole entry): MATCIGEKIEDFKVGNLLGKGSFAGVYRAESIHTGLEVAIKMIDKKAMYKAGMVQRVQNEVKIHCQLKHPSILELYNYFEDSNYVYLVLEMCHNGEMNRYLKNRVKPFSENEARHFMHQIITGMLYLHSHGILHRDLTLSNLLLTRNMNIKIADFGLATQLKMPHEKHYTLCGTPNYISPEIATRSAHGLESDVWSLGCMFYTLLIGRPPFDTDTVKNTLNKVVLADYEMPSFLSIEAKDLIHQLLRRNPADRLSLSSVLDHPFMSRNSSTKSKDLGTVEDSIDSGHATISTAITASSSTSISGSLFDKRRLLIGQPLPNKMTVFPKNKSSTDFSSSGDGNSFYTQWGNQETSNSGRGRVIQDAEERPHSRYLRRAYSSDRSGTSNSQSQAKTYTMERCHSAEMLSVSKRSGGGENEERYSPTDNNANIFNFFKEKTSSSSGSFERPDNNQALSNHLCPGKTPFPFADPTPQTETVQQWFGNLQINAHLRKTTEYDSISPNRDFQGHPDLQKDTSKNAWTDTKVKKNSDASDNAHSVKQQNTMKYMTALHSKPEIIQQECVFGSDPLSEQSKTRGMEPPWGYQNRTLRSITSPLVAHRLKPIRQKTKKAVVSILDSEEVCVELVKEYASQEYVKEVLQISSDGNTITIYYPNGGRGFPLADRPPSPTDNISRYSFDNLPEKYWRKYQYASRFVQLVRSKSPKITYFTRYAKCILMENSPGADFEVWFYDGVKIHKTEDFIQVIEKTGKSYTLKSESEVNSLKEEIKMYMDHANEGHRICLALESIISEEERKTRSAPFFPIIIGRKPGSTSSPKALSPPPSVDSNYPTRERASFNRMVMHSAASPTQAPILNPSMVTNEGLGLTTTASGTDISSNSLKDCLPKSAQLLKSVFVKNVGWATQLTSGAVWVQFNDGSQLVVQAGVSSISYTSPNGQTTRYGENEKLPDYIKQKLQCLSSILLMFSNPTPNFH
Sequence of human recombinant Aurora B (Q96GD4 whole entry): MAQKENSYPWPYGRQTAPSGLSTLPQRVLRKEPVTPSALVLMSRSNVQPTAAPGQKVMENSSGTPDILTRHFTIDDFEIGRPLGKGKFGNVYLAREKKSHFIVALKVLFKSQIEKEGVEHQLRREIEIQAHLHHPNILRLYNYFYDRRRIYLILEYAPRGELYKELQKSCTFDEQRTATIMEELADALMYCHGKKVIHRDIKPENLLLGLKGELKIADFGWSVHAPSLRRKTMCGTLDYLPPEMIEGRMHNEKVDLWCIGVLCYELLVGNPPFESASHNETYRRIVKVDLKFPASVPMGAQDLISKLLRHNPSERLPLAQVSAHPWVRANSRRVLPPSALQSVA

Turning to `COc1ccc2c(c1)[C@]1(C[C@H]1c1ccc3c(Nc4ccc([S+](C)[O-])nc4OC)n[nH]c3c1)C(=O)N2` (single isomer, unassigned) [Example 240], the values for the IC50 in assay [1] and in assay [2] were 2.18 nM and 422 nM, respectively. For the same compound, the “[Aurora A IC50 (nM)]/[PLK4 IC50 (nM)]” value in assay [3] is 735.1996. In addition, in assay [4], the “[Aurora B IC50 (nM)]/[PLK4 IC50 (nM)]” value was determined as 102.4323.
On to `COc1ccc2c(c1)[C@]1(C[C@H]1c1ccc3c(Nc4ncnc(N5CCOCC5)c4Cl)n[nH]c3c1)C(=O)N2` [Example 9, (1R,2S)-2-(3-{[5-Chloro-6-(morpholin-4-yl)pyrimidin-4-yl]amino}-1H-indazol-6-yl)-5′-methoxyspiro[cyclopropane-1,3′-indol]-2′(1′H)-one], for which the IC50 worked out at 0.694 nM in assay [1] and 99.7 nM in assay [2] (Homo sapiens, CHP-134, 120 h). The “[Aurora A IC50 (nM)]/[PLK4 IC50 (nM)]” value in assay [3] was 4791.187. In addition, in assay [4], the “[Aurora B IC50 (nM)]/[PLK4 IC50 (nM)]” value came to 240.6394.
As to `COc1ccc2c(c1)[C@]1(C[C@H]1c1ccc3c(Nc4nc(Cl)ncc4OC)n[nH]c3c1)C(=O)N2` [Example 10, (1R,2S)-2-{3-[(2-Chloro-5-methoxypyrimidin-4-yl)amino]-1H-indazol-6-yl}-5′-methoxyspiro[cyclopropane-1,3′-indol]-2′(1′H)-one], the IC50 in assay [1] turned out to be 1.59 nM; in assay [2] (Homo sapiens, CHP-134, 120 h), 438 nM. Further, in assay [3], the “[Aurora A IC50 (nM)]/[PLK4 IC50 (nM)]” value is 954.6314. Further, the “[Aurora B IC50 (nM)]/[PLK4 IC50 (nM)]” value in assay [4] is 103.0876.
In the same order, the values of `COc1ccc2c(c1)[C@]1(C[C@H]1c1ccc3c(Nc4ncnc(N5CCOCC5)c4OC)n[nH]c3c1)C(=O)N2` [Example 11, (1R,2S)-5′-Methoxy-2-(3-{[5-methoxy-6-(morpholin-4-yl)pyrimidin-4-yl)amino}-1H-indazol-6-yl)spiro[cyclopropane-1,3′-indol]-2′(1′H)-one] are 4.88 nM, 2950 nM, 3277.276 and 77.87.
Taken in the same sequence, the figures for `COc1ccc2c(c1)[C@]1(C[C@H]1c1ccc3c(Nc4ncnc(N5CCN(C)CC5)c4Cl)n[nH]c3c1)C(=O)N2` [Example 20, (1R,2S)-2-(3-{[5-chloro-6-(4-methylpiperazin-1-yl)pyrimidin-4-yl]amino}-1H-indazol-6-yl)-5′-methoxyspiro[cyclopropane-1,3′-indol]-2′(1′H)-one] were 2.25 nM, 263 nM, 4489.796 and 306.8323.
In the same order, the values of `COc1ccc2c(c1)[C@]1(C[C@H]1c1ccc3c(Nc4nc(OC)ncc4Cl)n[nH]c3c1)C(=O)N2` [Example 23, (1R,2S)-2-{3-[(5-chloro-2-methoxypyrimidin-4-yl)amino]-1H-indazol-6-yl}-5′-methoxyspiro[cyclopropano-1,3′-indol]-2′(1′H)-one] are 5.05 nM, 45.9 nM, 215.5309 and 170.7409.
Take `COc1ccc2c(c1)[C@]1(C[C@H]1c1ccc3c(Nc4nc(C)nc(N5CCOCC5)c4OC)n[nH]c3c1)C(=O)N2` [Example 41, (1R,2S)-5′-methoxy-2-(3-{[5-methoxy-2-methyl-6-(morpholin-4-yl)pyrimidin-4-yl]amino}-1H-indazol-6-yl)spiro[cyclopropane-1,3′-indol]-2′(1′H)-one]: the IC50 in assay [1] is 2.71 nM; in assay [2] (Homo sapiens, CHP-134, 120 h) it was 844 nM. Moreover, the “[Aurora A IC50 (nM)]/[PLK4 IC50 (nM)]” value in assay [3] worked out at 2257.47. In addition, the “[Aurora B IC50 (nM)]/[PLK4 IC50 (nM)]” value in assay [4] is 471.4128.
With `COc1ccc2c(c1)[C@]1(C[C@H]1c1ccc3c(Nc4ncnc(N5CC(O)C5)c4Cl)n[nH]c3c1)C(=O)N2` [Example 46, (1R,2S)-2-(3-{[5-chloro-6-(3-hydroxyazetidin-1-yl)pyrimidin4-yl]amino}-1H-indazol-6-yl)-5′-methoxyspiro[cyclopropane-1,3′-indol]-2′(1′H)-one], the IC50 came to 2.52 nM in assay [1] and 1430 nM in assay [2] (Homo sapiens, CHP-134, 120 h). For the same compound, the “[Aurora A IC50 (nM)]/[PLK4 IC50 (nM)]” value in assay [3] is given as 2542.642. Also, the “[Aurora B IC50 (nM)]/[PLK4 IC50 (nM)]” value in assay [4] came to 135.8985.
In the same order, the values of `COc1ccc2c(c1)[C@]1(C[C@H]1c1ccc3c(Nc4ncnc(N5CC(OC)C5)c4Cl)n[nH]c3c1)C(=O)N2` [Example 47, (1R,2S)-2-(3-{[5-chloro-6-(3-methoxyazetidin-1-yl)pyrimidin-4-yl]amino}-1H-indazol-6-yl)-5′-methoxyspiro[cyclopropane-1,3′-indol]-2′(1′H)-one] are 1.3 nM, 610 nM, 1879.416 and 104.3011.
Taken in the same sequence, the figures for `COc1ccc2c(c1)[C@]1(C[C@H]1c1ccc3c(Nc4nc(Cl)nc(N5CCOCC5)c4OC)n[nH]c3c1)C(=O)N2` [Example 48, (1R,2S)-2-(3-{[2-chloro-5-methoxy-6-(morpholin-4-yl)pyrimidin-4-yl]amino}-1H-indazol-6-yl)-5′-metboiyspiro[cyclopropane-1,3′-indol]-2′(1′H)-one] were 3.28 nM, 742 nM, 1948.123 and 292.3406.
Taken in the same sequence, the figures for `COc1ccc2c(c1)[C@]1(C[C@H]1c1ccc3c(Nc4nc(C5CC5)nc(N5CCOCC5)c4OC)n[nH]c3c1)C(=O)N2` [Example 51, (1R,2S)-2-(3-1[2-cyclopropyl-5-methoxy-6-(morpholin-4-yl)pyrimidin-4-yl]aminol-1H-indezol-6-yl)-5′-methoxyapiro[cyclopropane-1,3′-indol]-2′(1′H)-one] were 1.23 nM, 143 nM, 3031.656 and 1241.883.
Turning to `COc1ccc2c(c1)[C@]1(C[C@H]1c1ccc3c(Nc4ncnc(N5C[C@@H](C)O[C@@H](C)C5)c4OC)n[nH]c3c1)C(=O)N2` [Example 52, (lR,2S)-2-[3-({6-[(2R,6S)-2,6-dimethylmorpholin-4-yl]-5-methoxypyrimidin-4-yl}amino)-1H-indazol-6-yl]-5′-methoxyspiro[cydopropane-1,3′-indol]-2′(1′H)-one], the IC50 stood at 7.01 nM in assay [1] and 2260 nM in assay [2] (Homo sapiens, CHP-134, 120 h). The “[Aurora A IC50 (nM)]/[PLK4 IC50 (nM)]” value in assay [3] is 2009.699. For the same compound, the “[Aurora B IC50 (nM)]/[PLK4 IC50 (nM)]” value in assay [4] was 55.0706.
Turning to `COc1ccc2c(c1)[C@]1(C[C@H]1c1ccc3c(Nc4ncnc(N5CCS(=O)(=O)CC5)c4OC)n[nH]c3c1)C(=O)N2` [Example 54, (1R,2S)-2-(3-((6-(1,1-dioxidothiomorpholino)-5-methoxypyrimidin-4-yl)amino)-1H-indazol-6-yl)-5′-methoxyspiro[cydopropane-1,3′-indolin]-2′-one], the IC50 came out at 33.2 nM in assay [1] and 10000 nM in assay [2] (Homo sapiens, CHP-134, 120 h). Besides, the “[Aurora A IC50 (nM)]/[PLK4 IC50 (nM)]” value in assay [3] came out at 1504.212. The “[Aurora B IC50 (nM)]/[PLK4 IC50 (nM)]” value in assay [4] is 117.2684.
Regarding `COc1ccc2c(c1)[C@]1(C[C@H]1c1ccc3c(Nc4nc(CCO)cnc4OC)n[nH]c3c1)C(=O)N2` [Example 56, (1R,2S)-2-(3-{[6-(2-hydroxyethyl)-3-methoxypyrazin-2-yl]amino}-1H-indazol-6-yl)-5′-methoxyspiro[cyclopropane-1,3′-indol]-2′(1′H)-one], the IC50 worked out at 3.84 nM in assay [1] and 2680 nM in assay [2] (Homo sapiens, CHP-134, 120 h). In addition, the “[Aurora A IC50 (nM)]/[PLK4 IC50 (nM)]” value in assay [3] worked out at 1047.694. Moreover, in assay [4], the “[Aurora B IC50 (nM)]/[PLK4 IC50 (nM)]” value came to 423.7686.
In the same order, the values of `COc1ccc2c(c1)[C@]1(C[C@H]1c1ccc3c(Nc4nc(C)nc(N5CCS(=O)(=O)CC5)c4OC)n[nH]c3c1)C(=O)N2` [Example 57, 4-[5-methoxy-6-({6-[(1R,2S)-5′-methoxy-2′-oxo-1′,2′-dihydrospiro[cyclopropane-1,3′-indol]-2-yl]-1H-indazol-3-yl}amino)-2-methylpyrimidin-4-yl]-1λ6-thiomorpholine-1,1-dione] are 5.08 nM, 3960 nM, 3527.559 and 831.2992.
Taken in the same sequence, the figures for `COc1ccc2c(c1)[C@]1(C[C@H]1c1ccc3c(Nc4nc(C)nc(N5CCS(=O)(=O)CC5)c4Cl)n[nH]c3c1)C(=O)N2` [Example 58, 4-[5-chloro-6-({6-[(1R,2S)-5′-methoxy-2′-oxo-1,2′-dihydrospiro[cyclopropane-1,3′-indol]-2-yl]-1H-indazol-3-yl}amino)-2-methylpyrimidin-4-yl]-1λ6-thiomorpholine-1,1-dione] were 2.32 nM, 157 nM, 1393.782 and 140.6736.

The values above are taken from patent US20230365537A1, “POLO LIKE KINASE 4 INHIBITORS” (ORIC Pharmaceuticals, Inc., priority 2021, published 2023).
